Patent US20260092074A1, “Annelated Pyridines as Steroidogenesis Inhibitors, Preparation Method and Use Thereof” (Guangzhou Vinnocent Pharmaceutical Limited, priority 2022, published 2026)

Experiments:
human CYP11B1 = biological target: T1, human CYP11B1 (Homo sapiens, UniProt P15538); assay: Inhibition of hCYP11B1 in transfected V79 cells; assay type: cell-based; settings: hamster V79 cells expressing human CYP11B1; substrate 11-deoxycortisol 200 nM
T1 construct: expressed in transfected cells
T1 sequence (P15538 25-503): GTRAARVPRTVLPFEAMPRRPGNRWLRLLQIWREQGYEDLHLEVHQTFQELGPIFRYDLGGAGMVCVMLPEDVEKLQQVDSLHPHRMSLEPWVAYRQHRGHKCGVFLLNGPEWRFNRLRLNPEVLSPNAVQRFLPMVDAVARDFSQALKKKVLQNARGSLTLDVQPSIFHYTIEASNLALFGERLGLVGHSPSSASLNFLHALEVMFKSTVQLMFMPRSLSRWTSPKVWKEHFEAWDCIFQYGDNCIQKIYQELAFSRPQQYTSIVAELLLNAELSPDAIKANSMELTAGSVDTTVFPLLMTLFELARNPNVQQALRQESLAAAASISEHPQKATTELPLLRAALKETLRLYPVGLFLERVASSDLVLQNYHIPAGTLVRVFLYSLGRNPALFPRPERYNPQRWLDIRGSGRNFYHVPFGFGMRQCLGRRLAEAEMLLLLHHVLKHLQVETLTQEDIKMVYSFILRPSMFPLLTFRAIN
Method in brief: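 Reactions started with 200 nM 11-deoxycortisol, ran for 30 min and were stopped with ethyl acetate, after a 2 h compound preincubation. The host was stably transfected V79 hamster cells carrying human CYP11B1 plus rat P450 reductase. Percent inhibition, from LC-MS/MS or HPLC (260 nm) quantitation of substrate and product, gave the IC50.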

human CYP11B2 = biological target: T2, human CYP11B2 (Homo sapiens, UniProt P19099); assay: Inhibition of hCYP11B2 in transfected V79 cells; assay type: cell-based; settings: hamster V79 cells expressing human CYP11B2; substrate 11-deoxycorticosterone 200 nM
T2 construct: expressed in transfected cells
T2 sequence (P19099 25-503): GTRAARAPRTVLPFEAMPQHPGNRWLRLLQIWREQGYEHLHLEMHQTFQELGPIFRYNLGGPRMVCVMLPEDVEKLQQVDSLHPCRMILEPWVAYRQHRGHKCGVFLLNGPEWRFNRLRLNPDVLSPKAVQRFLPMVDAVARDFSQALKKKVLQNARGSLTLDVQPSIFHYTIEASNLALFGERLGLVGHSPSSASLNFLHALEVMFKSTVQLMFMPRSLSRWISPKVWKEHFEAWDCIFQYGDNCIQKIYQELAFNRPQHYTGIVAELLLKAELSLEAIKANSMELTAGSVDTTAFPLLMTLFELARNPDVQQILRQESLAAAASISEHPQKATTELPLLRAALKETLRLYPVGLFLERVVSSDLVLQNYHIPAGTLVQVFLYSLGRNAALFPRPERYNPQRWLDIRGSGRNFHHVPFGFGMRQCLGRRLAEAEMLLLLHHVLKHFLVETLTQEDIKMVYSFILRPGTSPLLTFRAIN
Method in brief: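 The substrate (200 nM, 30 min) was added after a 2 hour compound pre-incubation in lentivirus-transduced V79 cells stably expressing human CYP11B2 plus rat NADPH-P450 reductase.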

IC50 (human CYP11B1) [nM] | IC50 (human CYP11B2) [nM] | SMILES
187 | 2.8 | N#Cc1ccc(-c2cncc3c2OCCN3C(=O)c2ccco2)cc1 [O31, 4-(4-(Furan-2-carbonyl)-3,4-dihydro-2H-pyrido[4,3-b][1,4]oxazin-8-yl)benzonitrile]
549 | 16 | O=S(=O)(c1ccc(O)nc1)N1CCSc2c(-c3cc4cc(Cl)ccc4o3)cncc21 [S54, 5-((8-(5-Chlorobenzofuran-2-yl)-2,3-dihydro-4H-pyrido[4,3-b][1,4]thiazin-4-yl)sulfonyl) pyridin-2-ol]
1820 | 113 | O=C(c1ccccc1F)N1CCc2c(-c3ccc4occc4c3)cncc21 [C63, (4-(Benzofuran-5-yl)-2,3-dihydro-1H-pyrrolo[2,3-c]pyridin-1-yl)(2-fluorophenyl)methanone]
65 | 0.8 | N#Cc1ccc(-c2cncc3c2ccn3C(=O)c2ccc(C(F)(F)F)cc2)cc1 [E20, 4-(1-(4-(Trifluoromethyl)benzoyl)-1H-pyrrolo[2,3-c]pyridin-4-yl)benzonitrile]
0.3 | 0.13 | N#Cc1ccc(-c2cncc3c2ccn3S(=O)(=O)c2ccc(F)cc2)cc1 [E6, 4-(1-((4-Fluorophenyl)sulfonyl)-1H-pyrrolo[2,3-c]pyridin-4-yl)benzonitrile]
54 | 1.6 | N#Cc1ccc(-c2cncc3c2OCCN3C(=O)CCc2ccc(Cl)cc2)cc1 [O49, 4-(4-(3-(4-Chlorophenyl)propanoyl)-3,4-dihydro-2H-pyrido[4,3-b][1,4]oxazin-8-yl)benzonitrile]
262 | 1.8 | N#Cc1ccc(-c2cncc3c2OCCN3C(=O)Cc2ccc(F)cc2)cc1 [O36, 4-(4-(2-(4-Fluorophenyl)acetyl)-3,4-dihydro-2H-pyrido[4,3-b][1,4]oxazin-8-yl)benzonitrile]
108 | 12 | N#Cc1ccc(-c2cncc3c2CCN3C(=O)Cc2ccccc2[N+](=O)[O-])cc1 [C70, 4-(1-(2-(2-Nitrophenyl)acetyl)-2,3-dihydro-1H-pyrrolo[2,3-c]pyridin-4-yl)benzonitrile]
603 | 3.2 | N#CN1CC2(CC(S(=O)(=O)N3CCSc4c(-c5cc6cc(Cl)ccc6o5)cncc43)C2)C1 [S67, 6-((8-(5-chlorobenzofuran-2-yl)-2,3-dihydro-4H-pyrido[4,3-b][1,4]thiazin-4-yl)sulfonyl)-2-azaspiro[3.3]heptane-2-carbonitrile]
9 | 2.5 | N#Cc1ccc(-c2cncc3c2ccn3C(=O)c2ccccc2[N+](=O)[O-])cc1 [E29, 4-(1-(2-Nitrobenzoyl)-1H-pyrrolo[2,3-c]pyridin-4-yl)benzonitrile]
766 | 60 | N#Cc1ccc(-c2cncc3c2CCN3C(=O)c2cccc(C#N)c2)cc1 [C37, 3-(4-(4-Cyanophenyl)-2,3-dihydro-1H-pyrrolo[2,3-c]pyridine-1-carbonyl)benzonitrile]
99 | 0.4 | N#Cc1ccc(S(=O)(=O)N2CCSc3c(-c4cc5cc(Cl)ccc5o4)cncc32)cc1 [S41, 4-((8-(5-Chlorobenzofuran-2-yl)-2,3-dihydro-4H-pyrido[4,3-b][1,4]thiazin-4-yl)sulfonyl) benzonitrile]
891 | 44 | O=C(c1ccccc1F)N1CCc2c(-c3cccc(F)c3)cncc21 [C52, (2-fluorophenyl)(4-(3-fluorophenyl)-2,3-dihydro-1H-pyrrolo[2,3-c]pyridin-1-yl)methanone]
0.8 | 0.1 | N#Cc1ccc(-c2cncc3c2SCCN3S(=O)(=O)c2ccc(F)cc2)cc1 [S10, 4-(4-((4-Fluorophenyl)sulfonyl)-3,4-dihydro-2H-pyrido[4,3-b][1,4]thiazin-8-yl)benzonitrile]
1540 | 22 | CC(=O)Nc1ccccc1C(=O)N1CCSc2c(-c3ccc(C#N)cc3)cncc21 [S86, N-(2-(8-(4-Cyanophenyl)-3,4-dihydro-2H-pyrido[4,3-b][1,4]thiazine-4-carbonyl)phenyl) acetamide]
522 | 103 | O=C(c1ccccc1F)N1CCc2c(-c3ccoc3)cncc21 [C56, (2-Fluorophenyl)(4-(furan-3-yl)-2,3-dihydro-1H-pyrrolo[2,3-c]pyridin-1-yl)methanone]
468 | 4.1 | N#Cc1ccc(-c2cncc3c2OCCN3C(=O)[C@H]2CCN(Cc3cccc(F)c3)C2)cc1 [O104, (S)-4-(4-(1-(3-Fluorobenzyl)pyrrolidine-3-carbonyl)-3,4-dihydro-2H-pyrido[4,3-b][1,4]oxazin-8-yl)benzonitrile]
284 | 22 | COc1ccccc1C(=O)N1CCc2c(-c3ccc(C#N)cc3)cncc21 [C34, 4-(1-(2-Methoxybenzoyl)-2,3-dihydro-1H-pyrrolo[2,3-c]pyridin-4-yl)benzonitrile]
792 | 10 | N#CN1CCC(S(=O)(=O)N2CCSc3c(-c4cc5cc(Cl)ccc5o4)cncc32)CC1 [S63, 4-((8-(5-Chlorobenzofuran-2-yl)-2,3-dihydro-4H-pyrido[4,3-b][1,4]thiazin-4-yl)sulfonyl) piperidine-1-carbonitrile]
97 | 3 | COc1ccc(C(=O)N2CC(S(=O)(=O)N3CCOc4c(-c5ccc(C#N)cc5)cncc43)C2)cc1 [O113, 4-(4-((1-(4-Methoxybenzoyl)azetidin-3-yl)sulfonyl)-3,4-dihydro-2H-pyrido[4,3-b][1,4]oxazin-8-yl)benzonitrile]
0.5 | 0.08 | N#Cc1ccc(-c2cncc3c2ccn3S(=O)(=O)c2ccc(C#N)cc2)cc1 [E14, 4-((4-(4-Cyanophenyl)-1H-pyrrolo[2,3-c]pyridin-1-yl)sulfonyl)benzonitrile]
0.36 | 0.64 | N#Cc1ccc(-c2cncc3c2CCN3S(=O)(=O)c2ccc(C(F)(F)F)cc2)cc1 [C4, 4-(1-((4-(Trifluoromethyl)phenyl)sulfonyl)-2,3-dihydro-1H-pyrrolo[2,3-c]pyridin-4-yl)benzonitrile]
678 | 12 | O=C(c1ccc(F)cc1)n1ccc2c(-c3ccn4ccnc4c3)cncc21 [E39, (4-Fluorophenyl)(4-(imidazo[1,2-a]pyridin-7-yl)-1H-pyrrolo[2,3-c]pyridin-1-yl)methanone]
298 | 23 | N#Cc1ccc(-c2cncc3c2CCN3C(=O)c2cccc(Cl)c2)cc1 [C39, 4-(1-(3-Chlorobenzoyl)-2,3-dihydro-1H-pyrrolo[2,3-c]pyridin-4-yl)benzonitrile]
30.4 | 5.6 | COc1ccc(S(=O)(=O)N2CCSc3c(-c4ccsc4)cncc32)cc1 [S36, 4-((4-Methoxyphenyl)sulfonyl)-8-(thiophen-3-yl)-3,4-dihydro-2H-pyrido[4,3-b][1,4]thiazine]
38 | 1.2 | COc1ccc(S(=O)(=O)N2CC(S(=O)(=O)N3CCSc4c(-c5ccc(C#N)cc5)cncc43)C2)cc1 [S78, 4-(4-((1-((4-Methoxyphenyl)sulfonyl)azetidin-3-yl)sulfonyl)-3,4-dihydro-2H-pyrido[4,3-b][1,4]thiazin-8-yl)benzonitrile]
310 | 7 | N#Cc1ccc(-c2cncc3c2CCN3C(=O)c2cccc(C(F)(F)F)c2)cc1 [C23, 4-(1-(3-(Trifluoromethyl)benzoyl)-2,3-dihydro-1H-pyrrolo[2,3-c]pyridin-4-yl)benzonitrile]
